Consider one compound from a compilation of properties of binary mixtures (doi:10.1007/s10953-017-0608-9).

The series in a line: xn = mol fraction of the nth substance listed. The conditions noted are these: 101 kPa.

Several values for one entry are separate records, joined by “and”; a condition that tells them apart may be missing. Equal entries are not always repeated.

In the case of `CCCCCCCCn1cc[n+](C)c1.[Br-]` + O, the electrical conductivity runs as follows: (288.15 K, x1 = 0.0001) 0.029 S/m and 0.0557 S/m; (288.15 K, x1 = 0.0002) 0.0822 S/m; (298.15 K, x1 = 0.0001) 0.0353 S/m and 0.0696 S/m; (308.15 K, x1 = 0.0001) 0.0426 S/m and 0.0846 S/m. Moreover, the viscosity (288.15 K, x1 = 0.0002) is on record as 1.158 mPa·s; the viscosity (298.15 K, x1 = 0.0001) is on record as 0.896 mPa·s; the viscosity (308.15 K, x1 = 0.0001) is 0.725 mPa·s and 0.73 mPa·s.
